# Columns and labels:
# [1] = tested on: HepG2; experiment: Induction of apoptosis in human HepG2 cells assessed as early apoptotic cells at 1.25 uM incubated for 24 hrs by Annexin-V/PI staining based flow cytometry (Rvb=4.48%); format: functional
# [2] = tested on: HepG2; experiment: Induction of cell cycle arrest in human HepG2 cells assessed as accumulation at G0/G1 phase at 5 uM incubated for 24 hrs by flow cytometry (Rvb= 46.5%); format: functional
# [3] = tested on: HepG2; experiment: Induction of apoptosis in human HepG2 cells assessed as viable cells at 0.625 uM incubated for 24 hrs by Annexin-V/PI staining based flow cytometry (Rvb=94.0%); format: functional; details: read-out: Activity
# [4] = tested on: HepG2; experiment: Induction of cell cycle arrest in human HepG2 cells assessed as accumulation at S phase at 1.25 uM incubated for 24 hrs by flow cytometry (Rvb= 20.1%); format: functional
# [5] = tested on: HepG2; experiment: Induction of cell cycle arrest in human HepG2 cells assessed as accumulation at S phase at 5 uM incubated for 24 hrs by flow cytometry (Rvb= 20.1%); format: functional
# [6] = tested on: HepG2; experiment: Induction of apoptosis in human HepG2 cells assessed as increase in p21 level at 0.625 to 2.5 uM incubated for 24 hrs by Western blot analysis; format: functional, cell-based; details: dose 0.625-2.5 µM
# [7] = tested on: HepG2; experiment: Induction of apoptosis in human HepG2 cells assessed as late apoptotic cells at 0.625 uM incubated for 24 hrs by Annexin-V/PI staining based flow cytometry (Rvb=0.66%); format: functional
# [8] = tested on: HepG2; experiment: Induction of apoptosis in human HepG2 cells assessed as necrotic cells at 1.25 uM incubated for 24 hrs by Annexin-V/PI staining based flow cytometry (Rvb=0.85%); format: functional
# [9] = tested on: HepG2; experiment: Induction of apoptosis in human HepG2 cells assessed as total apoptotic cells at 1.25 uM incubated for 24 hrs by Annexin-V/PI staining based flow cytometry (Rvb=5.14%); format: functional
# [10] = tested on: HepG2; experiment: Induction of cell cycle arrest in human HepG2 cells assessed as accumulation at G0/G1 phase at 0.625 uM incubated for 24 hrs by flow cytometry (Rvb= 46.5%); format: functional
# [11] = tested on: HepG2; experiment: Antiproliferative activity against human HepG2 cells assessed as reduction in cell viability incubated for 72 hrs by MTT assay; format: functional, cell-based; details: HepG2, 72 h
# [12] = tested on: HepG2; experiment: Induction of apoptosis in human HepG2 cells assessed as total apoptotic cells at 2.5 uM incubated for 24 hrs by Annexin-V/PI staining based flow cytometry (Rvb=5.14%); format: functional
# [13] = tested on: HepG2; experiment: Antimigratory activity against human HepG2 cells assessed as increase in Occludin expression at 0.625 to 2.5 uM incubated 24 hrs by Western blot analysis; format: functional, cell-based; details: dose 0.625-2.5 µM
# [14] = tested on: HepG2; experiment: Induction of apoptosis in human HepG2 cells assessed as total apoptotic cells at 5 uM incubated for 24 hrs by Annexin-V/PI staining based flow cytometry (Rvb=5.14%); format: functional
# [15] = tested on: MCF7; experiment: Antiproliferative activity against human MCF7 cells assessed as reduction in cell viability incubated for 72 hrs by MTT assay; format: functional, cell-based; details: MCF7, 72 h
# [16] = tested on: HepG2; experiment: Antimigratory activity against human HepG2 cells assessed as decrease in Snail expression at 0.625 to 2.5 uM incubated 24 hrs by Western blot analysis; format: functional, cell-based; details: dose 0.625-2.5 µM
# [17] = tested on: HepG2; experiment: Induction of cell cycle arrest in human HepG2 cells assessed as accumulation at G2/M phase at 1.25 uM incubated for 24 hrs by flow cytometry (Rvb= 14.05%); format: functional
# [18] = tested on: HepG2; experiment: Induction of apoptosis in human HepG2 cells assessed as viable cells at 5 uM incubated for 24 hrs by Annexin-V/PI staining based flow cytometry (Rvb=94.0%); format: functional; details: read-out: Activity
# [19] = tested on: HepG2; experiment: Antimigratory activity against human HepG2 cells assessed as decrease in MMP-9 expression at 0.625 to 2.5 uM incubated 24 hrs by Western blot analysis; format: functional, cell-based; details: dose 0.625-2.5 µM
# [20] = tested on: HepG2; experiment: Antimigratory activity against human HepG2 cells assessed as increase in E-cadherin expression at 0.625 to 2.5 uM incubated 24 hrs by Western blot analysis; format: functional, cell-based; details: dose 0.625-2.5 µM
# [21] = tested on: HepG2; experiment: Induction of apoptosis in human HepG2 cells assessed as necrotic cells at 0.625 uM incubated for 24 hrs by Annexin-V/PI staining based flow cytometry (Rvb=0.85%); format: functional
# [22] = tested on: HepG2; experiment: Induction of cell cycle arrest in human HepG2 cells assessed as accumulation at S phase at 2.5 uM incubated for 24 hrs by flow cytometry (Rvb= 20.1%); format: functional
# [23] = tested on: HepG2; experiment: Induction of apoptosis in human HepG2 cells assessed as viable cells at 2.5 uM incubated for 24 hrs by Annexin-V/PI staining based flow cytometry (Rvb=94.0%); format: functional; details: read-out: Activity
# [24] = biological target: Bromodomain-containing protein 4 (Homo sapiens, UniProt O60885); experiment: Inhibition of BRD4 BD1 (unknown origin) by TR-FRET assay
# [25] = tested on: HepG2; experiment: Inhibition of colony formation in human HepG2 cells at 10 uM incubated for 8 days with drug replacement every 2 days by crystal violet staining based imaging analysis; format: functional; details: HepG2, 192 h, time 8 day
# [26] = tested on: HepG2; experiment: Induction of apoptosis in human HepG2 cells assessed as necrotic cells at 2.5 uM incubated for 24 hrs by Annexin-V/PI staining based flow cytometry (Rvb=0.85%); format: functional
# [27] = tested on: HepG2; experiment: Induction of cell cycle arrest in human HepG2 cells assessed as accumulation at G2/M phase at 5 uM incubated for 24 hrs by flow cytometry (Rvb= 14.05%); format: functional
# [28] = tested on: HepG2; experiment: Induction of apoptosis in human HepG2 cells assessed as total apoptotic cells at 0.625 uM incubated for 24 hrs by Annexin-V/PI staining based flow cytometry (Rvb=5.14%); format: functional
# [29] = tested on: HepG2; experiment: Induction of apoptosis in human HepG2 cells assessed as early apoptotic cells at 2.5 uM incubated for 24 hrs by Annexin-V/PI staining based flow cytometry (Rvb=4.48%); format: functional
# [30] = tested on: HepG2; experiment: Induction of cell cycle arrest in human HepG2 cells assessed as accumulation at G2/M phase at 2.5 uM incubated for 24 hrs by flow cytometry (Rvb= 14.05%); format: functional
# [31] = tested on: HepG2; experiment: Induction of apoptosis in human HepG2 cells assessed as viable cells at 1.25 uM incubated for 24 hrs by Annexin-V/PI staining based flow cytometry (Rvb=94.0%); format: functional; details: read-out: Activity
# [32] = tested on: HepG2; experiment: Induction of cell cycle arrest in human HepG2 cells assessed as accumulation at G0/G1 phase at 1.25 uM incubated for 24 hrs by flow cytometry (Rvb= 46.5%); format: functional
# [33] = tested on: HepG2; experiment: Induction of cell cycle arrest in human HepG2 cells assessed as accumulation at G2/M phase at 0.625 uM incubated for 24 hrs by flow cytometry (Rvb= 14.05%); format: functional
# [34] = tested on: HepG2; experiment: Antimigratory activity against human HepG2 cells assessed as inhibition of cell migration at 0.625 to 5 uM measured upto 24 hrs by wound healing assay; format: functional, cell-based; details: dose 0.625-5 µM
# [35] = tested on: HepG2; experiment: Inhibition of c-myc expression in human HepG2 cells at 0.625 to 2.5 uM incubated for 24 hrs by Western blot analysis; format: functional, cell-based; details: dose 0.625-2.5 µM
# [36] = tested on: HT-29; experiment: Antiproliferative activity against human HT-29 cells assessed as reduction in cell viability incubated for 72 hrs by MTT assay; format: functional, cell-based; details: HT-29, 72 h
smiles,measurement,setting,value
CC(=O)Nc1ccc(Oc2ccc(F)cc2F)c(-c2ccc3[nH]c(=O)c(C)nc3c2)c1,Activity,[1],6.32%
same,Activity,[2],54.9%
same,viability at 0.625 µM,[3],92.9%
same,Activity,[4],10.2%
same,Activity,[5],12.4%
same,Activity,[6],Dose-Dependent Effect
same,Activity,[7],0.96%
same,Activity,[8],0.83%
same,Activity,[9],7.66%
same,Activity,[10],46.1%
same,IC50,[11],1130 nM
same,Activity,[12],8.61%
same,Activity,[13],Dose-Dependent Effect
same,Activity,[14],11.66%
same,IC50,[15],22.1 µM
same,Activity,[16],Dose-Dependent Effect
same,Activity,[17],22.6%
same,viability at 5 µM,[18],87.5%
same,Activity,[19],Dose-Dependent Effect
same,Activity,[20],Dose-Dependent Effect
same,Activity,[21],0.8%
same,Activity,[22],9.5%
same,viability at 2.5 µM,[23],90.6%
same,IC50,[24],82.3 nM
same,inhibition at 10 µM,[25],80%
same,Activity,[26],0.9%
same,Activity,[27],21%
same,Activity,[28],6.26%
same,Activity,[29],7.22%
same,Activity,[30],24.4%
same,viability at 1.25 µM,[31],91.5%
same,Activity,[32],51%
same,Activity,[33],15.5%
same,inhibition,[34],Dose-Dependent Effect
same,inhibition,[35],Dose-Dependent Effect
same,IC50,[36],> 50 µM
